Laboratory results reported in article PMC8228075, “In Vitro and In Silico Characterization of G-Protein Coupled Receptor (GPCR) Targets of Phlorofucofuroeckol-A and Dieckol” (Marine Drugs, 2021).

Assays:
Assay type in all cases: cell-based
[1] = target: T1, Glucagon-like peptide-1 receptor (GLP-1) (Mus musculus, UniProt O35659); experiment: GLP-1R functional antagonist assay (cAMP, HTRF, βTC6 cells); details: for Antagonist Effect: % inhibition of control response to 0.3 nM GLP-1(7–37); for IC50: antagonist effect, mean ± SD, n = 3; for inhibition at 12.5 µM / inhibition at 25 µM / inhibition at 100 µM: read-out: Antagonist Effect
T1 construct: mouse GLP-1 receptor-expressed βTC6 cells; host or cells: βTC6 cells
T1 sequence (O35659 22-463): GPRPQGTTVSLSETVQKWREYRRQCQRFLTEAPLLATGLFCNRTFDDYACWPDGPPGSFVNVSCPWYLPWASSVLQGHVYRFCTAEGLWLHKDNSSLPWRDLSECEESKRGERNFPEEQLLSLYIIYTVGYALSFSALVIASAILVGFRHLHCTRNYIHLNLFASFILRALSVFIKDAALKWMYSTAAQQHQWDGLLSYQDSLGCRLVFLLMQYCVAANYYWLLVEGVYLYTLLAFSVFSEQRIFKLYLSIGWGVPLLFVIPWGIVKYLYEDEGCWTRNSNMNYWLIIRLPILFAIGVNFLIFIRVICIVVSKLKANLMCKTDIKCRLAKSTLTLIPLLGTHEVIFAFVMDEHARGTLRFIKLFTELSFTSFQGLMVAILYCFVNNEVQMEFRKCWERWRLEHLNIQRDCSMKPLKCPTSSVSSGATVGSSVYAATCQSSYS
Method: (§1) The in-house assay protocol and experimental conditions are reported in our previous reports. The functional effect of dieckol and PFF-A was characterized based on their modulation effect on cytosolic Ca^2+ ion mobilization using a fluorimetric detection method or by measuring their effect on cAMP modulation using homogeneous time-resolved fluorescence (HTRF) detection.
(§2) Functional activity of phlorotannins over hA2AR, hα2CAR, hCB1R, GLP-1R, and h5-HT1BR was determined by measuring their effects on cAMP production by the HTRF detection method using transected cells expressing human cloned receptors.
(§3) The HBSS buffer (Invitrogen) complemented with 20 mM HEPES (pH 7.4) and 500 µM IBMX was used to suspend and distribute the βTC6 cells at a density of 1.5x10^4 cells/well. The plate was then incubated for 10 min at RT in the presence of HBSS (basal and stimulated control), the test compound, or the reference agonist and antagonist. […] Following incubation, the cells were lysed and the fluorescence acceptor (D2-labeled cAMP) and fluorescence donor (anti-cAMP antibody labeled with europium cryptate) were added.

[2] = target: T2, Alpha-2C adrenergic receptor (hα2CAR) (Homo sapiens, UniProt P18825); experiment: hα2CAR functional antagonist assay (cAMP, HTRF, CHO cells); details: read-out: Antagonist Effect
T2 construct: host or cells: CHO cells
T2 sequence (P18825 1-462): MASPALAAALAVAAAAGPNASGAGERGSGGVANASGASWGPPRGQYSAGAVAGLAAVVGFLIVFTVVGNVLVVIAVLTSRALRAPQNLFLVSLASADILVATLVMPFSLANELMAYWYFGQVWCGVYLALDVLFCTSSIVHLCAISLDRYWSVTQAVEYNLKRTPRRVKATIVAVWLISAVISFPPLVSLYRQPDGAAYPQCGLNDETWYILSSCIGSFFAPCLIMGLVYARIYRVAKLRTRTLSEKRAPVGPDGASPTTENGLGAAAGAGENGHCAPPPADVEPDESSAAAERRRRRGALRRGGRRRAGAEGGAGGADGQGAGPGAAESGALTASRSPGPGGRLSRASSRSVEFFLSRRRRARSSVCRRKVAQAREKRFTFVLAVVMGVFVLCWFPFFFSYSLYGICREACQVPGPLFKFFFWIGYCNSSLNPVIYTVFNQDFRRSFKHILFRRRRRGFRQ
Method: as §1, §2
After 10 min at 37 °C, the cells were lysed and the fluorescence acceptor (D2-labeled cAMP) and fluorescence donor (anti-cAMP antibody labeled with europium cryptate) were added.

[3] = target: T3, δ-opioid receptor (hδ-OPR) (Homo sapiens, UniProt P41143); experiment: hδ-OPR functional antagonist assay (Ca2+ mobilization, rat basophil leukemia cells); details: for Antagonist Effect: 50 µM; for IC50: antagonist effect, mean ± SD, n = 3; for inhibition at 150 µM: read-out: Antagonist Effect, 150 µM
T3 construct: host or cells: rat basophil leukemia cells
Source text: as §1
Thereafter, a mixture of fluorescent probe (Fluo8, AAT Bioquest) and probenecid in HBSS buffer (Invitrogen) complemented with 20 mM Hepes (Millipore) (pH 7.4) was added and plates were incubated for 60 min at 30 °C. Then, the assay plates were positioned in a FlipR Tetra microplate reader (Molecular Device, San Jose, CA, USA) for the addition of the test compound, reference agonist/antagonist, or HBSS buffer (basal control). Change in fluorescence intensity that varies proportionally to the free cytosolic Ca^2+ ion concentration was measured.

[4] = target: T4, Alpha-2A adrenergic receptor (hα2AAR) (Homo sapiens, UniProt P08913); experiment: hα2AAR functional antagonist assay (Ca2+ mobilization, rat basophil leukemia cells); details: read-out: Antagonist Effect
T4 construct: host or cells: rat basophil leukemia cells
T4 sequence (P08913 1-465): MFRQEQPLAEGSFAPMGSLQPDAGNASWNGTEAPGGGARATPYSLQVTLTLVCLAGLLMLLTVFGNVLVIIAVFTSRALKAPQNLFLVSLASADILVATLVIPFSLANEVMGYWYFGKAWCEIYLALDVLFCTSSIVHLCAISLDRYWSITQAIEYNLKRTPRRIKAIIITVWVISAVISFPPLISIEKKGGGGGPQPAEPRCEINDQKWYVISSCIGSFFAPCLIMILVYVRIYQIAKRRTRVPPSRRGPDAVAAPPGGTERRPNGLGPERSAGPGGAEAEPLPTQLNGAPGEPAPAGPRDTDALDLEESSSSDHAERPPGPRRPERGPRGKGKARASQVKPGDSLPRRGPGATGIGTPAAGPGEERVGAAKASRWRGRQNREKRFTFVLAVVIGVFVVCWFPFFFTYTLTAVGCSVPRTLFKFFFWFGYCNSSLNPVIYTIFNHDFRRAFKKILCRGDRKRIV
Source text: as §1
The rat basophil leukemia cells were distributed in microplates at a density of 1.1 × 10^4 cells/well after suspending in a HBSS buffer (Invitrogen) containing 20 mM HEPES. Then, the fluorescent probe (Fluo8, AAT Bioquest) mixed with probenecid in HBSS buffer (Invitrogen) complemented with 20 mM Hepes (Millipore) (pH 7.4) was added into each well incubated for 60 min at 30 °C. Thereafter, the assay plates were positioned in a microplate reader (FlipR Tetra, Molecular Device) and we added test compounds, reference agonist/antagonist or HBSS buffer (basal control). Change in fluorescence intensity which varies proportionally to the free cytosolic Ca^2+ ion concentration was measured.

[5] = target: T1, Glucagon-like peptide-1 receptor (GLP-1); experiment: GLP-1R functional agonist assay (cAMP, HTRF, βTC6 cells); details: 100 µM; % of control response to 100 nM GLP-1(7–37)
Method: as §1, §2, §3

[6] = % inhibition of control response to 25 nM DPDPE

T3 sequence (P41143 whole entry): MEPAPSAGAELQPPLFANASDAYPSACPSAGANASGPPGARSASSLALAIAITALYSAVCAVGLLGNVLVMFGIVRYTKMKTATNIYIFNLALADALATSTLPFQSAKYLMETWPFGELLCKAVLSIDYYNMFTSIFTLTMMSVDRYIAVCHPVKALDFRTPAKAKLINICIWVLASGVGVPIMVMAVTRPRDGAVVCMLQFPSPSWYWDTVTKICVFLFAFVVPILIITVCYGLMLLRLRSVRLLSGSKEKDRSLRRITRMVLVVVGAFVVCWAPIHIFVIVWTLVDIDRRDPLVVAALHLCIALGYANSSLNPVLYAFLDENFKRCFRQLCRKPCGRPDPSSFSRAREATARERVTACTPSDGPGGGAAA

Compound	Antagonist Effect ([1]; 25 µM)	Antagonist Effect ([1]; 50 µM)	Antagonist Effect ([1]; 100 µM)	IC50 [1]	inhibition at 12.5 µM [1]	inhibition at 25 µM [1]	inhibition at 100 µM [1]	inhibition at 100 µM [2]	Antagonist Effect [3, 6]	IC50 [3]	inhibition at 100 µM ([3]; read-out: Antagonist Effect, 100 µM, % inhibition of control response to 25 nM DPDPE)	inhibition at 150 µM [3, 6]	inhibition at 100 µM [4]	Agonist Effect [5]	potency relative to dieckol ([1]; from IC50 values, GLP-1R antagonist effect)
Oc1cc(O)cc(Oc2c(O)cc(O)c3c2Oc2c(O)cc(Oc4c(O)cc(Oc5c(O)cc(O)c6c5Oc5c(O)cc(O)cc5O6)cc4O)cc2O3)c1 [Dieckol, dieckol]	21.23 ± 7.31%	53.80 ± 3.12%	101.0 ± 8.20%	47.2 ± 2.46 µM	17.9 ± 6.32%	21.2%	101 ± 8.2%	-1.2 ± 6.08%	23.23 ± 4.04%	80.5 ± 13.7 µM	67 ± 0.92%	100 ± 1.53%	46.1 ± 20.1%	−16.3 ± 1.13%	
Oc1cc(O)cc(Oc2c(O)cc(O)c3c2Oc2c(O)cc4oc5c(Oc6cc(O)cc(O)c6)c(O)cc(O)c5c4c2O3)c1 [PFF-A, phlorofucofuroeckol-A]	57.37 ± 1.15%	83.87 ± 2.03%		21.6 ± 2.16 µM	25.6 ± 13.1%	57.4%	106 ± 1.27%	19.2 ± 9.76%	89.03 ± 0.70%	< 50 µM		93.7 ± 6.67%	20.9 ± 1.77%	−15.5 ± 2.55%	two-fold higher
